# Measurements published in PubChem BioAssay (NCI).
#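 Where inhibition never reached the appropriate level, the endpoint shown equals the highest concentration tested. Otherwise, values were interpolated linearly from a five-concentration, 48-hour dose response in 96-well plates. At the TGI there is no net growth.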
# What was measured:
# Assay in all cases: growth of human tumour cells (NCI), 48 h
# SK-OV-3 ovarian = system: SK-OV-3 ovarian
# PC-3 prostate = system: PC-3 prostate
# EKVX NSCLC = system: EKVX NSCLC
# CCRF-CEM leukemia = system: CCRF-CEM leukemia
# UACC-257 melanoma = system: UACC-257 melanoma
# HCT-15 colon = system: HCT-15 colon
# OVCAR-5 ovarian = system: OVCAR-5 ovarian
# HCT-116 colon = system: HCT-116 colon
# RXF 393 renal = system: RXF 393 renal
# SK-MEL-5 melanoma = system: SK-MEL-5 melanoma
# A498 renal = system: A498 renal
# COLO 205 colon = system: COLO 205 colon
# A549 NSCLC = system: A549 NSCLC
# LOX IMVI melanoma = system: LOX IMVI melanoma
# SF-268 CNS = system: SF-268 CNS
# ACHN renal = system: ACHN renal
# DU-145 prostate = system: DU-145 prostate
# MDA-N = system: MDA-N
# T-47D breast = system: T-47D breast
# 786-0 renal = system: 786-0 renal
# HCC-2998 colon = system: HCC-2998 colon
# M14 melanoma = system: M14 melanoma
# SR leukemia = system: SR leukemia
# SN12C renal = system: SN12C renal
# UACC-62 melanoma = system: UACC-62 melanoma
# MALME-3M melanoma = system: MALME-3M melanoma
# HOP-62 NSCLC = system: HOP-62 NSCLC
# BT-549 breast = system: BT-549 breast
# MDA-MB-231 breast = system: MDA-MB-231 breast
# NCI-H460 lung = system: NCI-H460 lung
# OVCAR-3 ovarian = system: OVCAR-3 ovarian
# TK-10 renal = system: TK-10 renal
# MDA-MB-435 = system: MDA-MB-435
# MCF7 breast = system: MCF7 breast
# OVCAR-4 ovarian = system: OVCAR-4 ovarian
# HL-60(TB) leukemia = system: HL-60(TB) leukemia
# SNB-75 CNS = system: SNB-75 CNS
# SK-MEL-2 melanoma = system: SK-MEL-2 melanoma
# U251 CNS = system: U251 CNS
# UO-31 renal = system: UO-31 renal
# SF-295 CNS = system: SF-295 CNS
# RPMI-8226 leukemia = system: RPMI-8226 leukemia
# SW-620 colon = system: SW-620 colon
# HT29 colon = system: HT29 colon
# NCI/ADR-RES ovarian = system: NCI/ADR-RES ovarian
# IGROV1 ovarian = system: IGROV1 ovarian
# OVCAR-8 ovarian = system: OVCAR-8 ovarian
# K-562 leukemia = system: K-562 leukemia
# HOP-92 NSCLC = system: HOP-92 NSCLC
# MOLT-4 leukemia = system: MOLT-4 leukemia
# NCI-H226 lung = system: NCI-H226 lung
# SK-MEL-28 melanoma = system: SK-MEL-28 melanoma
# SNB-19 CNS = system: SNB-19 CNS
# CAKI-1 renal = system: CAKI-1 renal
# HS 578T breast = system: HS 578T breast
# KM12 colon = system: KM12 colon
# SF-539 CNS = system: SF-539 CNS
# NCI-H23 lung = system: NCI-H23 lung
# NCI-H522 lung = system: NCI-H522 lung
smiles,measurement,setting,value
COC(=O)Nc1nc2ccccc2[nH]1,TGI,SK-OV-3 ovarian,> 31.5 µM
same,TGI,PC-3 prostate,> 100 µM
same,TGI,EKVX NSCLC,> 100 µM
same,TGI,CCRF-CEM leukemia,> 100 µM
same,TGI,UACC-257 melanoma,> 100 µM
same,TGI,HCT-15 colon,> 100 µM
same,TGI,OVCAR-5 ovarian,> 100 µM
same,TGI,HCT-116 colon,> 100 µM
same,TGI,RXF 393 renal,> 100 µM
same,TGI,SK-MEL-5 melanoma,> 100 µM
same,TGI,A498 renal,> 100 µM
same,TGI,COLO 205 colon,> 100 µM
same,TGI,A549 NSCLC,> 100 µM
same,TGI,LOX IMVI melanoma,> 100 µM
same,TGI,SF-268 CNS,> 100 µM
same,TGI,ACHN renal,> 100 µM
same,TGI,DU-145 prostate,> 87 µM
same,TGI,MDA-N,11.6 µM
same,TGI,T-47D breast,> 100 µM
same,TGI,786-0 renal,> 100 µM
same,TGI,HCC-2998 colon,> 100 µM
same,TGI,M14 melanoma,> 100 µM
same,TGI,SR leukemia,> 100 µM
same,TGI,SN12C renal,> 100 µM
same,TGI,UACC-62 melanoma,> 100 µM
same,TGI,MALME-3M melanoma,> 100 µM
same,TGI,HOP-62 NSCLC,> 100 µM
same,TGI,BT-549 breast,> 100 µM
same,TGI,MDA-MB-231 breast,> 100 µM
same,TGI,NCI-H460 lung,> 100 µM
same,TGI,OVCAR-3 ovarian,28.6 µM
same,TGI,TK-10 renal,> 100 µM
same,TGI,MDA-MB-435,8.05 µM
same,TGI,MCF7 breast,> 100 µM
same,TGI,OVCAR-4 ovarian,> 100 µM
same,TGI,HL-60(TB) leukemia,> 31.2 µM
same,TGI,SNB-75 CNS,> 73.8 µM
same,TGI,SK-MEL-2 melanoma,> 100 µM
same,TGI,U251 CNS,> 100 µM
same,TGI,UO-31 renal,> 100 µM
same,TGI,SF-295 CNS,32.9 µM
same,TGI,RPMI-8226 leukemia,> 100 µM
same,TGI,SW-620 colon,> 100 µM
same,TGI,HT29 colon,> 100 µM
same,TGI,NCI/ADR-RES ovarian,21 µM
same,TGI,IGROV1 ovarian,> 100 µM
same,TGI,OVCAR-8 ovarian,> 89.1 µM
same,TGI,K-562 leukemia,> 100 µM
same,TGI,HOP-92 NSCLC,> 100 µM
same,TGI,MOLT-4 leukemia,> 100 µM
same,TGI,NCI-H226 lung,> 100 µM
same,TGI,SK-MEL-28 melanoma,> 100 µM
same,TGI,SNB-19 CNS,> 100 µM
same,TGI,CAKI-1 renal,> 100 µM
same,TGI,HS 578T breast,> 95.4 µM
same,TGI,KM12 colon,> 100 µM
same,TGI,SF-539 CNS,50.5 µM
same,TGI,NCI-H23 lung,> 56.2 µM
CC(C)CCOC(=O)NC(Nc1ccc(F)cc1)(C(F)(F)F)C(F)(F)F,TGI,SK-OV-3 ovarian,> 100 µM
same,TGI,PC-3 prostate,> 100 µM
same,TGI,EKVX NSCLC,> 100 µM
same,TGI,CCRF-CEM leukemia,99.5 µM
same,TGI,UACC-257 melanoma,> 100 µM
same,TGI,HCT-15 colon,> 100 µM
same,TGI,OVCAR-5 ovarian,> 100 µM
same,TGI,HCT-116 colon,> 100 µM
same,TGI,RXF 393 renal,> 100 µM
same,TGI,SK-MEL-5 melanoma,> 100 µM
same,TGI,A498 renal,> 100 µM
same,TGI,COLO 205 colon,42.1 µM
same,TGI,A549 NSCLC,> 100 µM
same,TGI,LOX IMVI melanoma,> 100 µM
same,TGI,SF-268 CNS,> 100 µM
same,TGI,ACHN renal,> 100 µM
same,TGI,DU-145 prostate,> 100 µM
same,TGI,MDA-N,> 100 µM
same,TGI,T-47D breast,78.5 µM
same,TGI,786-0 renal,> 100 µM
same,TGI,HCC-2998 colon,> 100 µM
same,TGI,M14 melanoma,> 100 µM
same,TGI,SR leukemia,25.4 µM
same,TGI,SN12C renal,> 100 µM
same,TGI,UACC-62 melanoma,> 100 µM
same,TGI,MALME-3M melanoma,> 100 µM
same,TGI,HOP-62 NSCLC,> 100 µM
same,TGI,BT-549 breast,> 100 µM
same,TGI,MDA-MB-231 breast,76.1 µM
same,TGI,NCI-H460 lung,> 100 µM
same,TGI,OVCAR-3 ovarian,> 100 µM
same,TGI,TK-10 renal,> 100 µM
same,TGI,MDA-MB-435,> 100 µM
same,TGI,MCF7 breast,> 100 µM
same,TGI,HL-60(TB) leukemia,> 100 µM
same,TGI,SNB-75 CNS,> 100 µM
same,TGI,SK-MEL-2 melanoma,> 100 µM
same,TGI,U251 CNS,> 100 µM
same,TGI,UO-31 renal,36.5 µM
same,TGI,SF-295 CNS,> 100 µM
same,TGI,RPMI-8226 leukemia,> 100 µM
same,TGI,SW-620 colon,> 100 µM
same,TGI,HT29 colon,> 100 µM
same,TGI,NCI/ADR-RES ovarian,> 100 µM
same,TGI,IGROV1 ovarian,> 100 µM
same,TGI,OVCAR-8 ovarian,> 100 µM
same,TGI,K-562 leukemia,> 100 µM
same,TGI,HOP-92 NSCLC,> 100 µM
same,TGI,MOLT-4 leukemia,76.8 µM
same,TGI,NCI-H226 lung,> 100 µM
same,TGI,SK-MEL-28 melanoma,> 100 µM
same,TGI,SNB-19 CNS,> 100 µM
same,TGI,CAKI-1 renal,> 100 µM
same,TGI,HS 578T breast,> 100 µM
same,TGI,KM12 colon,> 100 µM
same,TGI,SF-539 CNS,46.1 µM
same,TGI,NCI-H23 lung,> 100 µM
same,TGI,NCI-H522 lung,69.4 µM
